The values that follow come from ChEMBL document CHEMBL1138105, “Highly potent and selective zwitterionic agonists of the delta-opioid receptor. Part 1” (Bioorg Med Chem Lett, 2006).

For data set [1], the target named is Delta-type opioid receptor (Mus musculus, UniProt P32300).
Description: Agonist activity at delta opioid receptor in mouse vas deferens
The nature of data set [2]: Distribution coefficient of the compound, log D at pH 7.4. Type of data set: physicochemical. The following applies: octanol/water.
Data set [3] has as its system Mus musculus. The data set is described as follows: Effect on locomotor activity in mouse hyper locomotion model at 1000 ug/kg, iv. Format: functional, organism-based.
For data set [4], the target named is Kappa-type opioid receptor (Cavia porcellus, UniProt P41144). The experiment in a line: Agonist activity at kappa opioid receptor in myenteric plexus muscle from guinea pig. Type of data set: functional.
Chain of Kappa-type opioid receptor (P41144 whole entry): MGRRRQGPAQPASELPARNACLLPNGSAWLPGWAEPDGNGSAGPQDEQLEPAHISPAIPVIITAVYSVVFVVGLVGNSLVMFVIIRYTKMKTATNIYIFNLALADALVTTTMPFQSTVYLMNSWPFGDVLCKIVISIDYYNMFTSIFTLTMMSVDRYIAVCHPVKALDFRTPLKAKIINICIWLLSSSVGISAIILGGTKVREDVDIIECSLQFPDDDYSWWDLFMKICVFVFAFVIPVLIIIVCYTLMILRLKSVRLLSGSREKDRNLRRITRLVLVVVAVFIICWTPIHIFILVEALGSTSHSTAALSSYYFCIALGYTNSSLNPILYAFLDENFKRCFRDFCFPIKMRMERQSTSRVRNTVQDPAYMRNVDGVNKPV
For data set [5], the target named is Mu-type opioid receptor (Cavia porcellus, UniProt P97266). The experiment in a line: Agonist activity at mu opioid receptor in myenteric plexus muscle from guinea pig. Format: functional.
Chain of Mu-type opioid receptor (P97266 whole entry): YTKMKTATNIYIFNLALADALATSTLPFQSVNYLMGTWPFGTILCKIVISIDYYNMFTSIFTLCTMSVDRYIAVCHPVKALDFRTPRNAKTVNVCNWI
Data set [6] relates to Mus musculus. The experiment in a line: Effect on locomotor activity in mouse hyper locomotion model at 100 ug/kg, iv. Format: functional, organism-based.
The nature of data set [7]: Plasma clearance in dog. Type of data set: ADME, organism-based, Canis lupus familiaris.
Data set [8] has as its target Delta-type opioid receptor (Homo sapiens, UniProt P41143). The experiment in a line: Binding affinity at human delta opioid receptor expressed in CHO cells. Type of data set: cell-based, Cricetulus griseus.
A short description of data set [9]: Oral bioavailability in dog. Type of data set: ADME, organism-based, Canis lupus familiaris. The following applies: in vivo.
A short description of data set [10]: Volume of distribution in dog. Format: ADME, organism-based, Canis lupus familiaris. The following applies: in vivo, read-out: Vdss.
Data set [11] relates to Mus musculus. The experiment in a line: Effect on locomotor activity in mouse hyper locomotion model at 400 ug/kg, iv. Type of data set: functional, organism-based.

Active and inactive are the calls of the source. No cut-off for these calls is given here.

Chain of Delta-type opioid receptor (Mus musculus, UniProt P32300) (P32300 whole entry): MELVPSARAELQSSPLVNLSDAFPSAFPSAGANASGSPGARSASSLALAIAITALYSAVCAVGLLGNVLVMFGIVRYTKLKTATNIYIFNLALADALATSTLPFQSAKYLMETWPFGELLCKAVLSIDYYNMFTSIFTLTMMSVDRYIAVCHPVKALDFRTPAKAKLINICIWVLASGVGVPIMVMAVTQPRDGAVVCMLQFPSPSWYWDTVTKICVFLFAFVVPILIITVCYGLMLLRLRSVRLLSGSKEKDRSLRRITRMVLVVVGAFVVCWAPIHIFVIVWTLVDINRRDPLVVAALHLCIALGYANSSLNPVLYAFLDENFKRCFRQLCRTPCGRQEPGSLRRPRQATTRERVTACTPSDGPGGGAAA
Chain of Delta-type opioid receptor (Homo sapiens, UniProt P41143) (P41143 whole entry): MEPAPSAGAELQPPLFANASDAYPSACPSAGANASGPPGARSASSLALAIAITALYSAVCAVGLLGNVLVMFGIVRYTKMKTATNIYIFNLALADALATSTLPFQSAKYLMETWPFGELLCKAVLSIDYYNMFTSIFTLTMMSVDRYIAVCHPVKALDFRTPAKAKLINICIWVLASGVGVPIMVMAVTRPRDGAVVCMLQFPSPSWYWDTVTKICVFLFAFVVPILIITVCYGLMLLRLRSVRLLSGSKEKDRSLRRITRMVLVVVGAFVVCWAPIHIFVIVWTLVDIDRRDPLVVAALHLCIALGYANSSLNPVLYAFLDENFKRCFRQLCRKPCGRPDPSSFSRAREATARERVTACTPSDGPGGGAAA

Regarding `C[C@@H]1CN([C@H](c2ccc(CC(=O)O)cc2)c2cccc(O)c2)[C@@H](C)CN1Cc1ccccc1`, the IC50 – broadly, the midpoint of a concentration-inhibition curve – in [1] was 0.158 nM. Further, the logD (commonly the decadic logarithm of the distribution of all forms, ionised or not, between an organic phase and buffer at a given pH) in data set [2] came out at 1.1. Besides, in data set [3], the result was Active.

As for `C[C@@H]1CN([C@@H](c2cccc(O)c2)c2ccc3c(c2)CN(C(=O)C(=O)O)CC3)[C@@H](C)CN1Cc1ccccc1`, the figures for the IC50 in data set [4], in [1] and in data set [5] were 398 nM, 0.00158 nM and 200 nM, respectively. Further, the log distribution coefficient (logD) in [2] came out at 1.6.

Regarding `C[C@@H]1CN([C@@H](c2cccc(O)c2)c2ccc3c(c2)CN(CCC(=O)O)C3)[C@@H](C)CN1Cc1ccccc1`, the IC50 in [4] is 7940 nM; in data set [1], 1 nM; in data set [5], 631 nM.

Turning to `C[C@@H]1CN([C@@H](c2cccc(F)c2)c2ccc3c(c2)CN(CCC(=O)O)CC3)[C@@H](C)CN1Cc1ccccc1`, in data set [1], the midpoint of inhibition, the IC50, lay at 100 nM.

`C[C@@H]1CN([C@@H](c2cccc(O)c2)c2ccc3c(c2)CN(Cc2ccccc2C(=O)O)C3)[C@@H](C)CN1Cc1ccccc1` showed an IC50 in [1] of 3.16 nM.

With `C[C@@H]1CN([C@@H](c2cccc(O)c2)c2ccc3c(c2)CN(C(=O)c2ccccc2C(=O)O)C3)[C@@H](C)CN1Cc1ccccc1`, the IC50 in data set [4] was 3980 nM; in data set [1], 0.316 nM; in [5] it was 50.1 nM.

For the compound `C[C@@H]1CN([C@@H](c2cccc(O)c2)c2ccc3c(c2)CN(CC(=O)O)CC3)[C@@H](C)CN1Cc1ccccc1`, the results for the IC50 in [4], in data set [1] and in data set [5] were 1000 nM, 0.0398 nM and 316 nM, respectively. This compound also had a logD in data set [2] of 2.1.

For `COc1cccc([C@@H](c2ccc3c(c2)CN(CCC(=O)O)C3)N2C[C@@H](C)N(Cc3ccccc3)C[C@@H]2C)c1`, the IC50 in data set [4] is over 10000 nM; in data set [1], 631 nM; in [5] it was over 10000 nM.

Compound `C[C@@H]1CN([C@H](c2ccc(-c3ccccc3C(=O)O)cc2)c2cccc(O)c2)[C@@H](C)CN1Cc1ccccc1` had an IC50 in data set [1] of 0.02 nM. The log distribution coefficient (logD) in data set [2] worked out at 2.3.

`C[C@@H]1CN([C@@H](c2cccc(F)c2)c2ccc3c(c2)CN(CCC(=O)O)C3)[C@@H](C)CN1Cc1ccccc1` showed an IC50 in data set [1] of 25.1 nM.

The compound `C[C@@H]1CN([C@H](c2ccc(CCC(=O)O)cc2)c2cccc(O)c2)[C@@H](C)CN1Cc1ccccc1` had an IC50 in [1] of 0.126 nM. Moreover, the logD in [2] was 2.1. For the same compound, in data set [6], the result was Active.

As to `C[C@@H]1CN([C@@H](c2cccc(O)c2)c2ccc3c(c2)CN(C(=O)c2cccc(C(=O)O)c2)C3)[C@@H](C)CN1Cc1ccccc1`, the IC50 in data set [4] is 1260 nM; in data set [1] it was 1.58 nM; in data set [5], 100 nM.

In [1], `COc1cccc([C@@H](c2ccc3c(c2)CN(CC(=O)O)C3)N2C[C@@H](C)N(Cc3ccccc3)C[C@@H]2C)c1` showed an IC50 of 25.1 nM.

Regarding `COc1cccc([C@@H](c2ccc3c(c2)CN(CC(=O)O)CC3)N2C[C@@H](C)N(Cc3ccccc3)C[C@@H]2C)c1`, the IC50 was 1260 nM in data set [4], 5.01 nM in data set [8], 2 nM in data set [1] and 5010 nM in data set [5]. Also, the clearance (usually the volume of plasma or blood freed of the substance per unit of time) in data set [7] stood at 17 mL/min/kg. The bioavailability (as a rule, dose-corrected exposure relative to a reference, in per cent) in [9] stood at 20%. Also, the Vd in data set [10] came out at 5.4 L/kg. In [2], the logD worked out at 2.5.

In data set [1], `C[C@@H]1CN([C@@H](c2ccccc2)c2ccc3c(c2)CN(CCC(=O)O)C3)[C@@H](C)CN1Cc1ccccc1` gave an IC50 of 63.1 nM. This lies in the double-digit nanomolar range.

In data set [1], `C[C@@H]1CN([C@@H](c2cccc(F)c2)c2ccc3c(c2)CN(C(=O)CC(=O)O)CC3)[C@@H](C)CN1Cc1ccccc1` showed an IC50 of 20 nM.

Consider `C=CCN1C[C@H](C)N([C@H](c2ccc(C(=O)N(CC)CC)cc2)c2cccc(OC)c2)C[C@H]1C` [SNC-80], for which the IC50 in data set [4] is 1260 nM; in [5] it was over 10000 nM. In addition, in data set [11], the result was Active.

With `C[C@@H]1CN([C@@H](c2cccc(O)c2)c2ccc3c(c2)CN(C(=O)CC(=O)O)CC3)[C@@H](C)CN1Cc1ccccc1`, the IC50 was 398 nM in data set [4], 0.001 nM in [1] and 200 nM in data set [5]. In data set [2], this compound returned a logD of 0.4.

`C[C@@H]1CN([C@@H](c2cccc(O)c2)c2ccc3c(c2)CN(CCC(=O)O)CC3)[C@@H](C)CN1Cc1ccccc1`: the figures for the half-inhibitory concentration (IC50) in data set [4], in data set [1] and in [5] were 5010 nM, 0.00501 nM and 1000 nM, respectively. Besides, the logD in [2] was 2.1.

Turning to `COc1cccc([C@@H](c2ccc3c(c2)CN(C(=O)CC(=O)O)CC3)N2C[C@@H](C)N(Cc3ccccc3)C[C@@H]2C)c1`, the IC50 in data set [1] is 15.8 nM. For the same compound, the logD in data set [2] amounted to 1.3.

Consider `C=CCN1C[C@H](C)N([C@H](c2ccc(C(=O)N(CC)CC)cc2)c2cccc(O)c2)C[C@H]1C`, for which the IC50 in data set [1] is 0.631 nM.

Turning to `COc1cccc([C@@H](c2ccc3c(c2)CN(CCC(=O)O)CC3)N2C[C@@H](C)N(Cc3ccccc3)C[C@@H]2C)c1`, the figures for the IC50 in data set [4], in data set [1] and in data set [5] were 1000 nM, 12.6 nM and over 10000 nM, respectively. Further, in data set [2], the logD amounted to 2.3.

As for `C[C@@H]1CN([C@@H](c2cccc(O)c2)c2ccc3c(c2)CN(CC(=O)O)C3)[C@@H](C)CN1Cc1ccccc1`, the IC50 in data set [4] is 1260 nM; in data set [1] it was 0.501 nM; in data set [5], 126 nM.
